Source: patent publication US11136337B2, “Pyrazole- and indazole-substituted oxadiazolopyridine derivatives for use as ghrelin O-acyl transferase (GOAT) inhibitors” (Boehringer Ingelheim International GmbH, priority 2018, dated 2021)

These compounds were tested against human GOAT (Homo sapiens (Human), UniProt Q96T53) (assay: Determination of hGOAT activity in HEK293 cells after incubation with test compound (acyl-ghrelin ELISA)). Settings: HEK293 cells stably expressing human GOAT and preproghrelin; 5 h incubation with octanoate-BSA; acyl-ghrelin in medium by ELISA.
Format: cell-based
Experimental: Determination of hGOAT Activity in HEK293 Cells after Incubation with Test Compound
HEK293 cells stably transfected with two expression vectors, one coding for preproghrelin cDNA and a second for the expression of human GOAT cDNA are used as a cellular model. After feeding the cells with octanoic acid for 5 hours, acyl-ghrelin is measured in cell culture medium by an ELISA procedure.
Cellline: Hek293 hGOAT/PPGhrl Clone #1B8Sodium octanoate, Sigma, Cat.-No. C5038
BD Poly-D-Lysin 384-well Plates, black-clear polystyrene BD Bioscience Cat.-No. […] ELISA human acylated Ghrelin Kit purchased from Bertin Pharman (detailed composition of buffers e.g. wash-puffer, ELISA buffer not known)
Cells are plated with a density of 5000 cells/well in 384-well poly-D-lysin plates and incubated for 1 day at 37° C., 5% CO2 in DMEM medium, 10% FCS, 1×NEAA, Puromycin (0.5 μg/ml) and G418 (1 mg/ml). Then the medium is changed to a identical medium without FCS and containing Octanoate-BSA (final concentration 100 μM each) and compound in DMSO (final DMSO concentration 0.3%). After incubation for 5 hours acylghrelin in the medium is measured by ELISA.
The medium sample is diluted 1:25 in Elisa buffer, a 25 μl aliquot is transferred to a 384-well ELISA plate previously washed 4 times with 100 μL wash buffer, and 25 μl tracer-solution is added. After incubation overnight (˜20 h) at 4° C. temperature the plate is washed 4 times with 100 μl wash-buffer per well. Finally 50 μl Ellman's reagent is added to each well and the plate is incubated in the dark for 20 minutes. The absorbance is measured at 405 nm in an Envision multilabel reader and the amount of acylated ghrelin is calculated according to a acylated ghrelin standard curve provided in the same plate.
The analysis of the data is performed by calculation of the percentage of acyl-ghrelin produced in the presence of test compound compared to the amount of acyl-ghrelin produced in the vehicle control samples. An inhibitor of the GOAT enzyme will give values between 100% CTL (no inhibition) and 0% CTL (complete inhibition).
IC50 values are calculated with Assay Explorer or other suited software based on curve fitting of results of 8 different compound concentrations.

human GOAT, sequence (Q96T53 whole entry): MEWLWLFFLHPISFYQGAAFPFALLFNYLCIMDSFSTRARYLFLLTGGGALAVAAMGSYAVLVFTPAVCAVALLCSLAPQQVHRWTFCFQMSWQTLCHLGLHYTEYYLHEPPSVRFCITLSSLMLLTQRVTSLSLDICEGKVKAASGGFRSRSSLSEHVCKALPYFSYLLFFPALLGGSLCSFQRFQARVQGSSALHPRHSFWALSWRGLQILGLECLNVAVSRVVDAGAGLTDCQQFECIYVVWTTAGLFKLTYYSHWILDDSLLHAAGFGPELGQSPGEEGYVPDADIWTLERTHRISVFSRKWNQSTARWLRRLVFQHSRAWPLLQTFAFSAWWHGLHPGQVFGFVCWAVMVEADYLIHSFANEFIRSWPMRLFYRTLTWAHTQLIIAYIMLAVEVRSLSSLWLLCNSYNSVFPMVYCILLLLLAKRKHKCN

IC50 | SMILES
0.6 nM | Cc1nc2nonc2c(N)c1Cn1cc(Br)c(C(F)(F)F)n1 [Example 1.7, 6-{[4-Bromo-3-(trifluoromethyl)-1H-pyrazol-1-yl]methyl}-5-methyl-[1,2,5]oxadiazolo[3,4-b]pyridin-7-amine]
1.4 nM | Cc1nc2nonc2c(N)c1Cn1cc(C(F)(F)F)cn1 [Example 1.8]
4.4 nM | Cc1nc2nonc2c(N)c1Cn1cc2cc(C#N)ccc2n1 [Example 1.9]
0.035 nM | Cc1nc2nonc2c(N)c1Cn1ccc(-c2ccccc2F)n1 [Example 2.1, 6-{[3-(2-Fluorophenyl)-1H-pyrazol-1-yl]methyl}-5-methyl-[1,2,5]oxadiazolo[3,4-b]pyridin-7-amine]
0.23 nM | Cc1nc2nonc2c(N)c1Cn1cc(-c2ccccc2F)cn1 [Example 2.2]
3.3 nM | Cc1nc2nonc2c(N)c1Cn1cc(-c2cccc(S(C)(=O)=O)c2)c(C(F)(F)F)n1 [Example 3.1, 6-{[4-(3-Methanesulfonylphenyl)-3-(trifluoromethyl)-1H-pyrazol-1-yl]methyl}-5-methyl-[1,2,5]oxadiazolo[3,4-b]pyridin-7-amine]
1.2 nM | Cc1nc2nonc2c(N)c1Cn1cc(-c2ccc(F)nc2)c(C(F)(F)F)n1 [Example 3.2]
2.6 nM | Cc1nc2nonc2c(N)c1Cn1cc(-c2ccnn2C)c(C(F)(F)F)n1 [Example 3.3]
5.1 nM | Cc1nc2nonc2c(N)c1Cn1cc(-c2cnn(C)c2)c(C(F)(F)F)n1 [Example 3.4]
0.034 nM | Cc1nc2nonc2c(N)c1Cn1ccc(-c2cccnc2F)n1 [Example 4.1, 6-{[3-(2-Fluoropyridin-3-yl)-1H-pyrazol-1-yl]methyl}-5-methyl-[1,2,5]oxadiazolo[3,4-b]pyridin-7-amine]
0.11 nM | Cc1nc2nonc2c(N)c1Cn1ccc(-c2c[nH]nc2C(F)(F)F)n1 [Example 4.2]
0.17 nM | Cc1nc2nonc2c(N)c1Cn1ccc(-c2ccco2)n1 [Example 4.6]
0.096 nM | Cc1nc2nonc2c(N)c1Cn1ccc(-c2cccc(S(C)(=O)=O)c2)n1 [Example 4.8]
0.04 nM | Cc1nc2nonc2c(N)c1Cn1ccc(-c2nn(C)c3ccccc23)n1 [Example 4.9]
0.19 nM | Cc1nc2nonc2c(N)c1Cn1ccc(-c2cn(C)c3ncccc23)n1 [Example 4.11]
0.076 nM | Cc1nc2nonc2c(N)c1Cn1ccc(-c2ccc(S(C)(=O)=O)cc2F)n1 [Example 4.12]
0.38 nM | Cc1nc2nonc2c(N)c1Cn1ccc(-c2ccc(C#N)c(F)c2)n1 [Example 4.13]
5.6 nM | Cc1nc2nonc2c(N)c1Cn1cc(-c2ccn[nH]2)cn1 [Example 4.15]
0.028 nM | Cc1nc2nonc2c(N)c1Cn1ccc(-c2cccc(C(F)(F)F)n2)n1 [Example 5.1, 5-Methyl-6-({3-[6-(trifluoromethyl)pyridin-2-yl]-1H-pyrazol-1-yl}methyl)-[1,2,5]oxadiazolo[3,4-b]pyridin-7-amine]
0.69 nM | Cc1nc2nonc2c(N)c1Cn1cc2ccccc2n1 [Example 6.1, 6-[(2H-Indazol-2-yl)methyl]-5-methyl-[1,2,5]oxadiazolo[3,4-b]pyridin-7-amine]

Continued, compound first:

SMILES | IC50
CCOC(=O)c1cnn(Cc2c(C)nc3nonc3c2N)c1 [Example 1.1, Ethyl 1-({7-amino-5-methyl-[1,2,5]oxadiazolo[3,4-b]pyridin-6-yl}methyl)-1H-pyrazole-4-carboxylate] | 1.7 nM
Cc1nc2nonc2c(N)c1Cn1cc(-c2ccc(C#N)cc2)cn1 [Example 1.2] | 1.6 nM
Cc1nc2nonc2c(N)c1Cn1cc(-c2c(C)noc2C)cn1 [Example 1.3] | 2.2 nM
Cc1nc2nonc2c(N)c1Cn1cc(C(C)(C)C)cn1 [Example 1.4] | 0.51 nM
Cc1nc2nonc2c(N)c1Cn1cc(NC(=O)OC(C)(C)C)cn1 [Example 1.5] | 3.3 nM
COC(=O)c1ccn(Cc2c(C)nc3nonc3c2N)n1 [Example 1.6, Methyl 1-({7-amino-5-methyl-[1,2,5]oxadiazolo[3,4-b]pyridin-6-yl}methyl)-1H-pyrazole-3-carboxylate] | 0.96 nM
Cc1nc2nonc2c(N)c1Cn1nccc1-c1ccccc1F [Example 2.3] | 0.28 nM
Cc1nc2nonc2c(N)c1Cn1ccc(C=O)n1 [Example 2.4, 1-({7-amino-5-methyl-[1,2,5]oxadiazolo[3,4-b]pyridin-6-yl}methyl)-1H-pyrazole-3-carbaldehyde] | 1.7 nM
Cc1nc2nonc2c(N)c1Cn1ccc(N2CCCS2(=O)=O)n1 [Example 2.5] | 0.18 nM
Cc1nc2nonc2c(N)c1Cn1cc(Br)cn1 [Example 2.6] | 4.4 nM
Cc1nc2nonc2c(N)c1Cn1ccc(-c2cncs2)n1 [Example 4.3] | 0.12 nM
Cc1nc2nonc2c(N)c1Cn1ccc(-c2c(C)noc2C)n1 [Example 4.4] | 0.29 nM
Cc1nc2nonc2c(N)c1Cn1ccc(-c2cnoc2)n1 [Example 4.5] | 3.8 nM
Cc1nc2nonc2c(N)c1Cn1ccc(-c2cncn2C)n1 [Example 4.7] | 0.37 nM
Cc1nc2nonc2c(N)c1Cn1ccc(-c2cnn3cccnc23)n1 [Example 4.10] | 0.15 nM
Cc1nc2nonc2c(N)c1Cn1ccc(-c2ccnn2C)n1 [Example 4.14] | 0.2 nM
Cc1nc2nonc2c(N)c1Cn1cc(-c2cnn(C)c2)cn1 [Example 4.16] | 3.6 nM
Cc1nc2nonc2c(N)c1Cn1ccc(C(=O)N2CCC(F)(F)C2)n1 [Example 7.1, 6-{[3-(3,3-Difluoropyrrolidine-1-carbonyl)-1H-pyrazol-1-yl]methyl}-5-methyl-[1,2,5]oxadiazolo[3,4-b]pyridin-7-amine] | 0.84 nM
Cc1nc2nonc2c(N)c1Cn1ccc(C(=O)N2CCC(F)(F)CC2)n1 [Example 7.2] | 3.5 nM
Cc1nc2nonc2c(N)c1Cn1ccc(C(=O)N2CCC(O)(C(F)(F)F)C2)n1 (stereo not drawn) [Example 7.3] | 5.1 nM
Cc1nc2nonc2c(N)c1Cn1ccc(NC(=O)C(NC(=O)OCc2ccccc2)C(C)C)n1 (stereo not drawn) [Example 8.1, Benzyl N-(1-{[1-({7-amino-5-methyl-[1,2,5]oxadiazolo[3,4-b]pyridin-6-yl}methyl)-1H-pyrazol-3-yl]carbamoyl}-2-methylpropyl)carbamate] | 3.2 nM
Cc1nc2nonc2c(N)c1Cn1ccc(CN2CCC(F)(F)CC2)n1 [Example 9.1, 6-({3-[(4,4-Difluoropiperidin-1-yl)methyl]-1H-pyrazol-1-yl}methyl)-5-methyl-[1,2,5]oxadiazolo [3,4-b]pyridin-7-amine] | 7.4 nM
